Results as given in ChEMBL document CHEMBL5154804, “Species-Selective Targeting of Fungal Hsp90: Design, Synthesis, and Evaluation of Novel 4,5-Diarylisoxazole Derivatives for the Combination Treatment of Azole-Resistant Candidiasis” (J Med Chem, 2022).
Converted amounts (≈) assume the structure as drawn. The source made the active and inactive calls. The rule behind the calls is not given here.

How the values were obtained:
[1] = system: Candida albicans; test: Reversal of fluconazole mediated azole resistant Candida albicans 904 assessed as upregulation of CDR1 expression at 32 ug/ml by RT-PCR; type: functional, organism-based; settings: dose 32.0 µg/ml
[2] = system: Candida albicans; test: Antifungal activity against fluconazole-resistant Candida albicans 100 assessed as inhibition of fungal growth by checker board microdilution assay; type: functional
[3] = system: Candida albicans; test: Synergistic antifungal activity against fluconazole-resistant Candida albicans 311 assessed as inhibition of fungal growth in presence of fluconazole by checker board microdilution assay; type: functional
[4] = system: Candida albicans; test: Antibiofilm activity against Candida albicans 904 assessed as inhibition of […] metabolism within the biofilm after 24 hrs by XTT reduction assay; type: functional
[5] = system: Candida albicans; test: Synergistic antifungal activity against fluconazole-resistant Candida albicans 904 assessed as inhibition of fungal growth in presence of fluconazole by checker board microdilution assay; type: functional
[6] = system: Candida albicans; test: Antifungal activity against fluconazole-resistant Candida albicans 311 assessed as inhibition of fungal growth by checker board microdilution assay; type: functional
[7] = system: Candida albicans; test: Synergistic antifungal activity against fluconazole-resistant Candida albicans 100 assessed as inhibition of fungal growth in presence of fluconazole by checker board microdilution assay; type: functional
[8] = system: Candida albicans; test: Reversal of fluconazole mediated azole resistant Candida albicans 904 assessed as upregulation of CDR2 expression at 32 ug/ml by RT-PCR; type: functional, organism-based; settings: dose 32.0 µg/ml
[9] = system: Candida albicans; test: Synergistic antifungal activity against fluconazole-resistant Candida albicans 103 assessed as inhibition of fungal growth in presence of fluconazole by checker board microdilution assay; type: functional
[10] = system: Candida albicans; test: Synergistic antifungal activity against fluconazole-resistant Candida albicans 632 assessed as inhibition of fungal growth in presence of fluconazole by checker board microdilution assay; type: functional
[11] = system: Candida albicans; test: Antifungal activity against fluconazole-resistant Candida albicans 904 assessed as inhibition of fungal growth by checker board microdilution assay; type: functional
[12] = system: Candida albicans; test: Antifungal activity against fluconazole-resistant Candida albicans 901 assessed as inhibition of fungal growth by checker board microdilution assay; type: functional
[13] = system: Candida albicans; test: Antifungal activity against fluconazole-resistant Candida albicans 632 assessed as inhibition of fungal growth by checker board microdilution assay; type: functional
[14] = system: Candida albicans; test: Antibiofilm activity against Candida albicans 904 assessed as inhibition of […] metabolism within the biofilm after 48 hrs by XTT reduction assay; type: functional
[15] = system: Candida albicans; test: Fungicidal activity against Candida albicans 904 assessed as colony forming at 4 times MIC incubated for 48 hrs by time-kill curve assay; type: functional
[16] = system: Candida albicans; test: Synergistic antifungal activity against fluconazole-resistant Candida albicans 901 assessed as inhibition of fungal growth in presence of fluconazole by checker board microdilution assay; type: functional
[17] = system: Candida albicans; test: Antifungal activity against fluconazole-resistant Candida albicans 103 assessed as inhibition of fungal growth by checker board microdilution assay; type: functional
[18] = system: Candida albicans; test: Potentiation of fluconazole-induced antifungal activity against fluconazole-resistant Candida albicans 100 assessed as fluconazole MIC by checker board microdilution assay; type: functional
[19] = system: Candida albicans; test: Potentiation of fluconazole-induced antifungal activity against fluconazole-resistant Candida albicans 103 assessed as fluconazole MIC by checker board microdilution assay; type: functional
[20] = system: Candida albicans; test: Synergetic antifungal activity against fluconazole-resistant Candida albicans 632 assessed as fractional inhibitory concentration index in presence of fluconazole by checker board microdilution assay; type: functional
[21] = Cytotoxicity against mouse BV-2 cell assessed as inhibition of cell growth after 24 hrs by MTT assay; type: toxicity, cell-based; settings: BV-2 cells
[22] = Metabolic stability in human liver microsomes assessed as microsomal intrinsic clearance in presence of NADPH cofactor under shaking condition for 10 mins measured after 5 to 60 mins by LC-MS/MS analysis; type: ADME, Microsome; settings: time 15-70 min
[23] = Binding affinity to recombinant Candida albicans Hsp90 NBD expressed in Escherichia coli by SPR assay
[24] = Metabolic stability in human liver microsomes assessed as half life in presence of NADPH cofactor under shaking condition for 10 mins measured after 5 to 60 mins by LC-MS/MS analysis; type: ADME, Microsome; settings: time 15-70 min
[25] = system: Candida albicans; test: Synergetic antifungal activity against fluconazole-resistant Candida albicans 103 assessed as fractional inhibitory concentration index in presence of fluconazole by checker board microdilution assay; type: functional
[26] = Metabolic stability in human liver microsomes assessed as compound remaining in presence of NADPH cofactor under shaking condition for 10 mins measured after 60 mins by LC-MS/MS analysis; type: ADME, Microsome; settings: time 70 min, read-out: Stability
[27] = biological target: CYP3A4 (Homo sapiens, UniProt P08684); test: Inhibition of CYP3A4 in human liver microsome at 10 uM using midazolam as substrate incubated for 10 mins in presence of NADPH cofactor by LC-MS/MS analysis; type: ADME; settings: liver microsomes, probe midazolam
CYP3A4, sequence (P08684 whole entry): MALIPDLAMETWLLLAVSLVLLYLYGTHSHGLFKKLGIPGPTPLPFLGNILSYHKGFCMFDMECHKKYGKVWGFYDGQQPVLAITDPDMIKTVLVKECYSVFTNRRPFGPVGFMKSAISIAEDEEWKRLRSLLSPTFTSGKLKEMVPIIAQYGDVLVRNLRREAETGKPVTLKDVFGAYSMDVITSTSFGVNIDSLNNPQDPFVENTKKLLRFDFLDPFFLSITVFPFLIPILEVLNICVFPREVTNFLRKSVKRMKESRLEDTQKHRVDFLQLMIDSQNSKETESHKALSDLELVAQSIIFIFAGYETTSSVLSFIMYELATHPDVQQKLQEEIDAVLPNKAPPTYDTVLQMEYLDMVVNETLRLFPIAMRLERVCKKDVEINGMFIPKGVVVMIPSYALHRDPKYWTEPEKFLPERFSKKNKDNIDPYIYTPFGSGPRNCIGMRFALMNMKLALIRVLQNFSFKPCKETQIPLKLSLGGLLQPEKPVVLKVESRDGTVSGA

[28] = system: A549; test: Cytotoxicity against human A549 cell assessed as inhibition of cell growth after 24 hrs by MTT assay; type: functional, cell-based; settings: A549, 24 h
[29] = Stability in human plasma assessed as compound remaining at 120 mins by LC-MS/MS analysis; type: ADME, cell-free; settings: read-out: Stability
[30] = system: MCF7; test: Cytotoxicity against human MCF7 cell assessed as inhibition of cell growth after 24 hrs by MTT assay; type: functional, cell-based; settings: MCF7, 24 h
[31] = Stability in human plasma assessed as half life at 120 mins by LC-MS/MS analysis; type: ADME, cell-free
[32] = biological target: Heat shock protein HSP90 (Homo sapiens, UniProt P07900+P08238); test: Binding affinity to human Hsp90 expressed in Escherichia coli by SPR assay
[33] = system: Candida albicans; test: Potentiation of fluconazole-induced antifungal activity against fluconazole-resistant Candida albicans 632 assessed as fluconazole MIC by checker board microdilution assay; type: functional
[34] = system: RAW264.7; test: Cytotoxicity against mouse RAW264.7 cell assessed as inhibition of cell growth after 24 hrs by MTT assay; type: functional, cell-based; settings: RAW264.7, 24 h
[35] = system: Candida albicans; test: Synergetic antifungal activity against fluconazole-resistant Candida albicans 100 assessed as fractional inhibitory concentration index in presence of fluconazole by checker board microdilution assay; type: functional
[36] = system: Candida albicans; test: Potentiation of fluconazole-induced antifungal activity against fluconazole-resistant Candida albicans 904 assessed as fluconazole MIC by checker board microdilution assay; type: functional
[37] = system: HepG2; test: Cytotoxicity against human HepG2 cell assessed as inhibition of cell growth after 24 hrs by MTT assay; type: functional, cell-based; settings: HepG2, 24 h
[38] = system: Candida albicans; test: Potentiation of fluconazole-induced antifungal activity against fluconazole-resistant Candida albicans 311 assessed as fluconazole MIC by checker board microdilution assay; type: functional
[39] = Metabolic stability in human liver microsomes assessed as intrinsic clearance in presence of NADPH cofactor under shaking condition for 10 mins measured after 5 to 60 mins by LC-MS/MS analysis; type: ADME, Microsome; settings: time 15-70 min
[40] = system: Candida albicans; test: Potentiation of fluconazole-induced antifungal activity against fluconazole-resistant Candida albicans 901 assessed as fluconazole MIC by checker board microdilution assay; type: functional
[41] = Cytotoxicity against mouse NIH3T3 cell assessed as inhibition of cell growth after 24 hrs by MTT assay; type: toxicity, cell-based; settings: NIH3T3 cells
[42] = system: Candida albicans; test: Synergetic antifungal activity against fluconazole-resistant Candida albicans 311 assessed as fractional inhibitory concentration index in presence of fluconazole by checker board microdilution assay; type: functional
[43] = biological target: CYP2D6 (Homo sapiens, UniProt P10635); test: Inhibition of CYPD6 in human liver microsome at 10 uM using dextromethorphan as substrate incubated for 10 mins in presence of NADPH cofactor by LC-MS/MS analysis; type: ADME; settings: liver microsomes, probe dextromethorphan
CYP2D6, sequence (P10635 whole entry): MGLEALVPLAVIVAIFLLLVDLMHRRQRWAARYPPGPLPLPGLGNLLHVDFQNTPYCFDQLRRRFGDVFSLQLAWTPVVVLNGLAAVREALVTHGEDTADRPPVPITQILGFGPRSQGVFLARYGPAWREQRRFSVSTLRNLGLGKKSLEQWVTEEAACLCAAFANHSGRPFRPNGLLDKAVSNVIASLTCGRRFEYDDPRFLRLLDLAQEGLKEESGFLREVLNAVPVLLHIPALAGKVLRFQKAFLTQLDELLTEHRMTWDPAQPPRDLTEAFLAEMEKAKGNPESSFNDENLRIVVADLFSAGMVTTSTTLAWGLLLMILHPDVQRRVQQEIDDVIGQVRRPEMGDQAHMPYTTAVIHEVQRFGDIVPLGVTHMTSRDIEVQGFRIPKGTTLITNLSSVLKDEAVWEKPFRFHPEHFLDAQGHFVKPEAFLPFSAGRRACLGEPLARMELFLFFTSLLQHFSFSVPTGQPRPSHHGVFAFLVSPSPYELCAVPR

[44] = biological target: T1, CYP1A2 (Homo sapiens, UniProt P05177); test: Inhibition of CYP1A2 in human liver microsome at 10 uM using phenacetin as substrate incubated for 10 mins in presence of NADPH cofactor by LC-MS/MS analysis; type: ADME; settings: liver microsomes, probe phenacetin
T1 sequence (P05177 whole entry): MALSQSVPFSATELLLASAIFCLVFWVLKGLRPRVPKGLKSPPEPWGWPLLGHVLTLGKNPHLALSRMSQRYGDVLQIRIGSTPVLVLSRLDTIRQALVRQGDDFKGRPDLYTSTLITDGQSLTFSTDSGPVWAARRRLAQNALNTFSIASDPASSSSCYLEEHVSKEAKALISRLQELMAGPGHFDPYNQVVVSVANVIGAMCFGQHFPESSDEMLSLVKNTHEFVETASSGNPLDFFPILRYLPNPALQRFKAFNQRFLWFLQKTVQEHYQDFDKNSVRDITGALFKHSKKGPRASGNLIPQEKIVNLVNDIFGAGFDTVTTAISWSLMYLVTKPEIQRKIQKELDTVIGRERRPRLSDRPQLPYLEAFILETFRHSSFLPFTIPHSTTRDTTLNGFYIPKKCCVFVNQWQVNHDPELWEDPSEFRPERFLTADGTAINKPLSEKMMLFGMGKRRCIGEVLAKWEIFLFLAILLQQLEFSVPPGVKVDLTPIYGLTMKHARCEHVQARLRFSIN

[45] = biological target: CYP2C9 (Homo sapiens, UniProt P11712); test: Inhibition of CYP2C9 in human liver microsome at 10 uM using diclofenac as substrate incubated for 10 mins in presence of NADPH cofactor by LC-MS/MS analysis; type: ADME; settings: liver microsomes, probe diclofenac
CYP2C9, sequence (P11712 whole entry): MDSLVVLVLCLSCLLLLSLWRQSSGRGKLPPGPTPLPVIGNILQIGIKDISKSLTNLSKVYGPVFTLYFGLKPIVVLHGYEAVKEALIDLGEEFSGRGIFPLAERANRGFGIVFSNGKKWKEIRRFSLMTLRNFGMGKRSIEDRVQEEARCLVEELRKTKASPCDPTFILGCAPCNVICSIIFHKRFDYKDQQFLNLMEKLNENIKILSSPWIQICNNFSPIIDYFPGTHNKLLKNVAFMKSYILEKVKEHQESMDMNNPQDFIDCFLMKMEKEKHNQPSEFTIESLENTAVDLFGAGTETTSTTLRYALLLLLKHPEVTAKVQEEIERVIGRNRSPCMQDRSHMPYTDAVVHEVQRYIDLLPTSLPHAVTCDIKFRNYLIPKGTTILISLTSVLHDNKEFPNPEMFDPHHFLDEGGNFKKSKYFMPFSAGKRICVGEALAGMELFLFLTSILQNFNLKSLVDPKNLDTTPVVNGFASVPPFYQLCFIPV

[46] = Cytotoxicity against human BEAS-2B cell assessed as inhibition of cell growth after 24 hrs by MTT assay; type: toxicity, cell-based; settings: BEAS-2B cells
[47] = Cytotoxicity against human THLE-2 cell assessed as inhibition of cell growth after 24 hrs by MTT assay; type: toxicity, cell-based; settings: THLE-2 cells
[48] = system: Candida albicans; test: Synergetic antifungal activity against fluconazole-resistant Candida albicans 904 assessed as fractional inhibitory concentration index in presence of fluconazole by checker board microdilution assay; type: functional
[49] = system: Candida albicans; test: Synergetic antifungal activity against fluconazole-resistant Candida albicans 901 assessed as fractional inhibitory concentration index in presence of fluconazole by checker board microdilution assay; type: functional
[50] = biological target: CYP2C19 (Homo sapiens, UniProt P33261); test: Inhibition of CYP2C19 in human liver microsome at 10 uM using S-mephenytoin as substrate incubated for 10 mins in presence of NADPH cofactor by LC-MS/MS analysis; type: ADME; settings: liver microsomes, probe S-mephenytoin
CYP2C19, sequence (P33261 whole entry): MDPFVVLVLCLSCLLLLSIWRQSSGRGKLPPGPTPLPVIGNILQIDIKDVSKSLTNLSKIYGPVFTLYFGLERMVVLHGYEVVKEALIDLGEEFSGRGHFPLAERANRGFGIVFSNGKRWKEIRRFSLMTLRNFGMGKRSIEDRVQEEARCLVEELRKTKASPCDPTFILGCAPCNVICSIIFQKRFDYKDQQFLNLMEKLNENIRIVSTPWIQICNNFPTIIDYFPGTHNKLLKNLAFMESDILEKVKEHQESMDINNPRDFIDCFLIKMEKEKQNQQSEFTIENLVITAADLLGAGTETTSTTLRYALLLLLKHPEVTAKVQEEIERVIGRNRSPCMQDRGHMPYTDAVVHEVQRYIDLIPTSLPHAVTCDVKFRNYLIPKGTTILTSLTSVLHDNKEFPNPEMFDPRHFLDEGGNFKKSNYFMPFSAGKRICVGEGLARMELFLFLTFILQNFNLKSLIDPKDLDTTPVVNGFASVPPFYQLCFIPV

## OC(Cn1cncn1)(Cn1cncn1)c1ccc(F)cc1F [FLUCONAZOLE]
[1]
  Activity: Active
[2]
  MIC80: > 64 µg/mL
[3]
  MIC80: > 64 µg/mL
[4]
  MIC50: 32 µg/mL (≈ 104 µM)
[5]
  MIC80: > 64 µg/mL
[6]
  MIC80: 64 µg/mL
[7]
  MIC80: > 64 µg/mL
[8]
  Activity: Active
[9]
  MIC80: > 64 µg/mL
[10]
  MIC80: > 64 µg/mL
[11]
  MIC80: > 64 µg/mL
[12]
  MIC80: > 64 µg/mL
[13]
  MIC80: > 64 µg/mL
[14]
  MIC50: > 64 µg/mL
[15]
  MFC: > 64 µg/mL
[16]
  MIC80: > 64 µg/mL
[17]
  MIC80: 64 µg/mL

## CCNC(=O)c1noc(-c2cc(-c3ccc(C)cc3)c(O)cc2O)c1-c1ccc(CN2CCCCC2)cc1
[2]
  MIC80: > 64 µg/mL
[18]
  MIC80: 1 µg/mL
[19]
  MIC80: 2 µg/mL
[20]
  fractional inhibitory concentration index (FICI): 0.039
[3]
  MIC80: 1 µg/mL
[21]
  IC50 at 24 h: 4.06 µM
[5]
  MIC80: 0.25 µg/mL
[22]
  CLint: 32 µL/min/mg
[23]
  Kd: 0.139 µM
[6]
  MIC80: > 64 µg/mL
[24]
  half-life: 43.3 min
[25]
  fractional inhibitory concentration index (FICI): 0.039
[26]
  remaining at 1.167 h: 37.9%
[27]
  inhibition at 10 min, 10 µM: 39.8%
[28]
  IC50: 13.8 µM
[7]
  MIC80: 0.25 µg/mL
[29]
  remaining at 2 h: 90.6%
[30]
  IC50: 5.49 µM
[31]
  half-life: > 288 min
[32]
  Kd: > 25 µM
[33]
  MIC80: 2 µg/mL
[34]
  IC50: 3.87 µM
[35]
  fractional inhibitory concentration index (FICI): 0.02
[9]
  MIC80: 0.5 µg/mL
[10]
  MIC80: 0.5 µg/mL
[11]
  MIC80: > 64 µg/mL
[36]
  MIC80: 2 µg/mL
[37]
  IC50: 4.71 µM
[38]
  MIC80: 2 µg/mL
[39]
  CLint: 28.8 mL/min/kg
[40]
  MIC80: 1 µg/mL
[41]
  IC50 at 24 h: 0.73 µM
[42]
  fractional inhibitory concentration index (FICI): 0.047
[43]
  inhibition at 10 min, 10 µM: 76.6%
[12]
  MIC80: > 64 µg/mL
[13]
  MIC80: > 64 µg/mL
[44]
  inhibition at 10 min, 10 µM: 12%
[16]
  MIC80: 0.25 µg/mL
[45]
  inhibition at 10 min, 10 µM: 39.2%
[46]
  IC50 at 24 h: 10 µM
[47]
  IC50 at 24 h: 5.72 µM
[17]
  MIC80: > 64 µg/mL
[48]
  fractional inhibitory concentration index (FICI): 0.035
[49]
  fractional inhibitory concentration index (FICI): 0.02
[50]
  inhibition at 10 min, 10 µM: 25.4%
